Common to all, as to format: cell-based
One experiment has as its system MRSA FRA 920. In words: MIC agar dilution, MRSA strain 38. As to conditions: Staphylococcus aureus. As for the experimental part:
(§1) Molar equivalent concentrations were used to allow comparison between compounds of differing molecular mass. Due to weighing difficulties, any compound in solid form was melted in a water bath prior to dilution. To make ten-times strength concentrations, which takes into account agar dilution, 0.0352 mmol of each compound was weighed into plastic universal bottles and 4 mL of sterile distilled water (SDW) was added. To produce a homogenous emulsion the universals were vortexed; once achieved the emulsions were serial diluted by adding 2 mL to 2 mL of SDW.
(§2) For every 100 mL of Isosensitest agar (IST) (CM0471; Oxoid, Basingstoke, England), 3.1 g of the IST powder was added to 100 mL SDW (as per manufacturer's instructions) and sterilised for 15 minutes at 121° C. Once sterilised, the molten agar was cooled to 50° C. in a water-bath. Subsequently 4.8 g of CCEY powder (BC2160; Bioconnections, Wetherby, England), also known as Brazier's medium, was added to 100 mL SDW for every 100 mL of agar needed. This was then sterilised for 15 minutes at 121° C. Once sterilised the molten agar was cooled to 50° C. in a water-bath and 4 mL of egg-yolk emulsion (S2073; TCS Biosciences Ltd, Buckingham, United Kingdom) and 1 mL of lysed defibrinated horse blood (HB035; TCS Biosciences Ltd, Buckingham, United Kingdom) were also added for every 100 mL needed. Horse blood lysis is achieved by dilution to half concentration with SDW; when fully lysed the mixture will turn dark red in colour.
(§3) 18 mL agar was added to each universal and then poured into sterile Petri dishes. This step creates a 1/10 dilution resulting in agar plates of the required strength. Control plates for each set of strains were created by adding 18 mL of agar to 2 mL of SDW.
(§4) Suspensions of each bacterial species were prepared with a density equal to that of a 0.5 McFarland standard using a densitometer. All suspensions were made using sterile distilled water and fresh 18-20 hour cultures. As a 0.5 McFarland standard contains 1.5×10^8 CFU/mL and the multipoint inoculators applies 1 μL spots of liquid, each bacterial suspension was diluted 1/15 (20 μL suspension to 280 μL sterile distilled water).
(§5) Bacterial suspensions were prepared from fresh 18-24 hour cultures as previously described. 1 μL of each strain was inoculated onto all 100 agar plates containing a different chemical concentration and the 2 control plates. This was done using a multipoint inoculator which inoculates 20 strains per plate. All plates were incubated for 22 hours at 37° C. in aerobic conditions.
(§6) Each plate was examined for bacterial growth after 22 and 48 hours, with each being incubated in between examinations. A positive result was recorded as growth of ≧10 colonies. A negative result was recorded as growth of <10 colonies as this is equivalent to 99.9% inhibition. The lowest concentration of chemical that inhibited growth was recorded as the MIC. The results are recorded in Table IV below, where the numbers are quoted in mmol/L.
(§7) Given the positive performance of the ethoxylates of lauryl alcohol in reducing the MIC for a number of the micro-organisms tested, further MIC testing of Laureth-1 [C12E1] through to Laureth-8 [C12E8] was conducted on each of the following: • 10 strains of vancomycin-resistant enterococci (VRE)—listed in Table V below; and • 20 strains of methicillin-resistant Staphylococcus aureus (MRSA)—listed in Table VI.
(§8) The alkanol, alkanol derivatives, agar plates, and inocula were all prepared in the same way as described above.
(§9) The plates were examined in the same manner as described above and the results are recorded in Table VII below, where the numbers are quoted in mmol/L.
In general terms: In agar dilution the substance is mixed into plates at graded concentrations.

In experiment [1] the test system is vancomycin-resistant enterococci (VRE). In words: MIC agar dilution, summary over 10 VRE strains. As to conditions: Enterococcus; most, if not all, of the VRE samples. The procedure:
as §7, §8, §9

Experiment [2] has as its system Enterococcus faecalis (VRE) MB 726. In words: MIC agar dilution, VRE strain 28. As for the experimental part: as §1, §2, §3, §4, §5, §6, §7, §8, §9
Experiment [3] deals with Enterococcus faecium (VRE) MB 305. In words: MIC agar dilution, VRE strain 25. As for the experimental part: as §1, §2, §3, §4, §5, §6, §7, §8, §9
The test system of a further experiment is Listeria monocytogenes. In words: MIC agar dilution, micro-organism 15 (11994). As to conditions: Listeria monocytogenes 11994. In a few lines:
(§10)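 Twofold dilutions of compound emulsions in water were set in Isosensitest agar with Brazier's CCEY medium, egg yolk and lysed horse blood. Spots of 1 µL from 0.5 McFarland suspensions diluted 1/15 were incubated aerobically at 37 °C and read at 22 and 48 h. MIC (mmol/L) was the lowest concentration giving <10 colonies.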

The subject of a further experiment is Enterococcus faecalis. In words: MIC agar dilution, micro-organism 17 (775). As to conditions: Enterococcus faecalis 775. A digest of the protocol: as §10
The subject of a further experiment is MRSA EMRSA 16 00036/95. In words: MIC agar dilution, MRSA strain 46. As to conditions: Staphylococcus aureus. As for the experimental part:
as §1, §2, §3, §4, §5, §6, §7, §8, §9

The subject of another experiment is MRSA FIN 54511 (E6). In words: MIC agar dilution, MRSA strain 32. As to conditions: Staphylococcus aureus. As for the experimental part:
as §1, §2, §3, §4, §5, §6, §7, §8, §9

In the next experiment the test system is Klebsiella pneumoniae. In words: MIC agar dilution, micro-organism 2 (9528). As to conditions: Klebsiella pneumoniae 9528. The procedure: (§11) Throughout the period of testing the microbial strains were subcultured and incubated for 18-20 hours at 37° C. on a weekly basis. Horse blood agar plates were used to sustain the micro-organisms both prior to and throughout testing. The alkoxylated alkanols listed in Table II below were obtained (these are obtainable from Sigma-Aldrich Company Ltd, Dorset, England), each having a GC purity of at least 97%.
as §1
(§12) Myristyl alcohol and lauryl alcohol were re-weighed and dissolved in 25 μL of the polar solvent 1-methyl-2-pyrrolidone (M6762; Sigma-Aldrich) in sterile glass universals due to an inability to achieve an even suspension. To maintain an even emulsion in the presence of SDW 37.5 μL of the non-ionic detergent Tween 20 (P1379, Sigma-Aldrich) was also added. 3.9375 mL of SDW was added to these, to create a 4 mL volume; they were vortexed and diluted as before.
as §2, §3, §4, §5, §6
(§13) Further experiments have also been conducted to determine the MIC of a number of other compositions as follows. […]

For another experiment, the system named is Pseudomonas aeruginosa. In words: MIC agar dilution, micro-organism 7 (10662). As to conditions: Pseudomonas aeruginosa 10662. The procedure:
as §11, §1, §12, §2, §3, §4, §5, §6, §13

A further experiment has as its system Salmonella typhimurium. In words: MIC agar dilution, micro-organism 6 (74). As to conditions: Salmonella typhimurium 74. The procedure: as §11, §1, §12, §2, §3, §4, §5, §6, §13
Experiment [4] deals with methicillin-resistant Staphylococcus aureus (MRSA). In words: MIC agar dilution, summary over 20 MRSA strains. As to conditions: MRSA bacterial samples, 22 and 48 hour. As for the experimental part: as §7, §8, §9

≈ marks a conversion by molar mass, not a printed value. Read-outs that look alike come from different tables or passages of the source.

Broadly, the MIC is the lowest concentration that inhibits growth of the organism. `CCCCCCCCCCCCOCCOCCOCCOCCOCCO` [L5, Pentaethylene Glycol Monododecyl Ether]: the MIC was 110 µM (≈ 44.7 µg/mL) against MRSA FRA 920 (22 hrs); 110 µM (≈ 44.7 µg/mL) in the experiment with MRSA FRA 920 (48 hrs); no more than 440 µM in experiment [1]; 220 µM (≈ 89.5 µg/mL) in [2] (22 hrs); 220 µM (≈ 89.5 µg/mL) in experiment [2] (48 hrs); 110 µM (≈ 44.7 µg/mL) in experiment [3] (22 hrs). For the same compound, the MIC in [3] (48 hrs) was determined as 110 µM (≈ 44.7 µg/mL); in the experiment with Listeria monocytogenes (22 hrs, read-out: MIC) it was 110 µM (≈ 44.7 µg/mL); in the experiment on Listeria monocytogenes (48 hrs, read-out: MIC) it was 220 µM (≈ 89.5 µg/mL); with Enterococcus faecalis (22 hrs, read-out: MIC) it was 110 µM (≈ 44.7 µg/mL); with Enterococcus faecalis (48 hrs, read-out: MIC) it was 110 µM (≈ 44.7 µg/mL); with MRSA EMRSA 16 00036/95 (22 hrs), 110 µM (≈ 44.7 µg/mL). Also, the values for the MIC with MRSA EMRSA 16 00036/95 (48 hrs), in the experiment on MRSA FIN 54511 (E6) (22 hrs) and against MRSA FIN 54511 (E6) (48 hrs) were 110 µM (≈ 44.7 µg/mL), 110 µM (≈ 44.7 µg/mL) and 220 µM (≈ 89.5 µg/mL), respectively.
As for `CCCCCCCCCCCCCOCCOCCOCCOCCOCCOCCO` [C13E6, polyoxyethylene (6) tridecyl alcohol], the MIC with Klebsiella pneumoniae (22 hrs), against Klebsiella pneumoniae (48 hrs), against Listeria monocytogenes (22 hrs), in the experiment with Listeria monocytogenes (48 hrs), against Pseudomonas aeruginosa (22 hrs) and in the experiment with Pseudomonas aeruginosa (48 hrs) was greater than 880 µM throughout. For the same compound, the MIC with Enterococcus faecalis (22 hrs) was 110 µM (≈ 51.1 µg/mL); against Enterococcus faecalis (48 hrs) it was 110 µM (≈ 51.1 µg/mL); in the experiment on Salmonella typhimurium (22 hrs), greater than 880 µM; with Salmonella typhimurium (48 hrs) it was greater than 880 µM.
Take `CCCCCCCCCCCCOCCOCCOCCOCCOCCOCCOCCOCCO` [L8, Octaethylene Glycol Monododecyl Ether]: the MIC is greater than 440 µM against MRSA FRA 920 (22 hrs); greater than 440 µM with MRSA FRA 920 (48 hrs); 880 µM (≈ 474 µg/mL) in [2] (22 hrs); greater than 880 µM in experiment [2] (48 hrs); greater than 880 µM in [3] (22 hrs); greater than 880 µM in [3] (48 hrs). The MIC in the experiment with Listeria monocytogenes (22 hrs, read-out: MIC) was 440 µM (≈ 237 µg/mL); in the experiment with Listeria monocytogenes (48 hrs, read-out: MIC), greater than 880 µM; with Enterococcus faecalis (22 hrs, read-out: MIC), 110 µM (≈ 59.3 µg/mL); in the experiment on Enterococcus faecalis (48 hrs, read-out: MIC), 110 µM (≈ 59.3 µg/mL); with MRSA EMRSA 16 00036/95 (22 hrs), greater than 440 µM; against MRSA EMRSA 16 00036/95 (48 hrs) it was greater than 440 µM. Besides, the MIC was roughly 440 µM (≈ 237 µg/mL) in experiment [4], 220 µM (≈ 119 µg/mL) in the experiment on MRSA FIN 54511 (E6) (22 hrs) and greater than 440 µM with MRSA FIN 54511 (E6) (48 hrs).
For `CCCCCCCCCCCCCCCCO` [C0, 1-Hexadecanol, reference compound], the MIC is 880 µM (≈ 213 µg/mL) in the experiment on Klebsiella pneumoniae (22 hrs, read-out: MIC); 880 µM (≈ 213 µg/mL) in the experiment with Klebsiella pneumoniae (48 hrs, read-out: MIC); greater than 880 µM in the experiment with Listeria monocytogenes (22 hrs, read-out: MIC); greater than 880 µM with Listeria monocytogenes (48 hrs, read-out: MIC); greater than 880 µM in the experiment with Pseudomonas aeruginosa (22 hrs, read-out: MIC); greater than 880 µM with Pseudomonas aeruginosa (48 hrs, read-out: MIC). In addition, the MIC was greater than 880 µM in the experiment on Enterococcus faecalis (22 hrs, read-out: MIC); greater than 880 µM in the experiment with Enterococcus faecalis (48 hrs, read-out: MIC); 880 µM (≈ 213 µg/mL) in the experiment with Salmonella typhimurium (Salmonella enterica, 22 hrs, read-out: MIC); 880 µM (≈ 213 µg/mL) in the experiment with Salmonella typhimurium (Salmonella enterica, 48 hrs, read-out: MIC).
